The record followed here is US7745402B2, “Method of treating pancreatitis” (Lundbeck Inc., priority 2005, dated 2010).

The experiment concerns caerulein-induced pancreatitis. Nature of the experiment: Caerulein-induced pancreatitis and its pulmonary complications after hemin pretreatment. Type of experiment: in vivo, Balb/c mice. Conditions: hemin 3× every other day, then caerulein hourly 7×; 12 h. As for the experimental part: (A,B) Mice were injected intraperitoneally with hemin (H) or vehicle (V; 7 mice/group) every other day (3×; arrows) followed by injection with either saline (Sal) or caerulein (Cae) hourly (7×; arrows) and then harvesting of the pancreata and lungs at 12 h after first Sal or Cae injection. Sera were collected for amylase/lipase measurement. (C-E) Pancreatic and lung tissues (from panels A,B) were used to determine trypsin (pmol/mg protein) and myeloperoxidase (MPO; ng/mg wet tissue) enzyme activities and to assess extent of tissue injury. Data are presented as mean±SD. A representative hematoxylin and eosin staining of lung is shown (scale bar=50 μM).
Mice and pancreatitis models. Experiments and animal care were performed according to approved institutional guidelines. […]
Animal procedures. […] Immunofluorescence staining was performed as described (29) and images were analyzed using confocal microscopy. Total tissue lysates were prepared by homogenization in Laemmli sample buffer and analyzed by SDS-PAGE followed by transfer to membranes for blotting and protein visualization by enhanced chemiluminescence. Trypsin activity was determined using a fluorimetric assay and the substrate Boc-Gln-Ala-Arg-MCA (Peptides International Inc.; Louisville, Ky.), and comparison to a standard curve generated with purified trypsin as described. […]

In the case of Hemin, the “lung histology (hemorrhage, alveolar collapse)” value is “marked hemorrhage and alveolar collapse in vehicle (a) compared to hemin (b) pretreated mice”.
